Assays:
[1] = system: p-Smad1/5/8 (Smad phosphorylation); assay: Western blot of p-Smad normalized to total Smad; assay type: cell-based; conditions: Mus musculus, 0.5 h, 30 min, read-out: p-Smad level, percent of control
Protocol: To investigate whether the new indolyl-benzimidazole compounds activate BMP receptor-dependent signaling pathways, the levels of p-Smad in serum-starved C2C12 cells, treated for 30 min with SY-LB-35 and SY-LB-57, were assessed by Western blot analysis. Whole cell lysates of treated C2C12 cells were probed for p-Smad using phospho-specific anti-Smad antibodies. p-Smad levels were normalized against total Smad levels.
(§1) C2C12 cells (3 mL) were seeded into 35 mm dishes at 7.5 × 10^4 cells/mL in complete growth medium, incubated to reach 80% confluence and serum-starved for 16–18 h. […] Thereafter, the cultures were washed with ice-cold 1X TBS for 2 min. Lysis Buffer (Cell Signaling Technology, Danvers, MA, USA) supplemented with 1 mM PMSF (phenylmethylsulphonyl fluoride) was added to the cultures and whole cell lysates were prepared.
(§2) Laemmli sample buffer (4X) was added to the whole cell lysates (20 µg) to a final concentration of 1X and heated at 100 °C for 5 min. The samples were immediately cooled on ice for 5 min and centrifuged at 9500 rpm for 2 min at RT. The samples and the Precision Plus Protein Standard (5 µL; Bio-Rad, Hercules, CA, USA) were loaded on 12% SDS polyacrylamide gels. Protein was separated using the Bio-Rad Mini Protean II Gel Electrophoresis System at 135 V. Meanwhile, 0.2 µm nitrocellulose membranes were pre-incubated in cold 1X Transfer Buffer (10 mM Tris/2.5 mM glycine/20% methanol) for at least 30 min. Next, the separated proteins were transferred at 100 V onto the pre-equilibrated nitrocellulose membranes for 1 h in Transfer Buffer, followed by blocking in 5% BSA/0.1% Tween 20/1X TBS for 30 min. The membranes were incubated overnight at 4 °C with the desired primary rabbit monoclonal antibody (p-Smad1/5(S463/465)/9(S465/467), Smad1 (D5907) XP®, p-Akt (Ser473) (D9E) XP®, or Akt (pan) (C67E7), p-SAPK/JNK (Thr183/Tyr185), SAPK/JNK, β-actin (Cell Signaling Technologies, Danvers, MA, USA)) or rabbit polyclonal antibody (phospho-PI3 Kinase p85 (Tyr458)/p55 (Tyr199) antibody (Cell Signaling Technologies, Danvers, MA, USA), p-p38 MAPK, p38 MAPK, p-ERK1, ERK1/2) (Abclonal, Woburn, MA, USA)) in Antibody Dilution Buffer (1% BSA/0.1% Tween 20/1X TBS) and then washed with 1X TBST (0.1% Tween 20/1X TBS) three times for 15 min. HRP-conjugated Goat Anti-Rabbit IgG secondary antibody (Santa Cruz Biotechnology, Inc., Dallas, TX, USA) in Antibody Dilution Buffer was added to the membranes for 1 h at RT followed by three 15-min washes with 1X TBST. Finally, the blots were developed using SuperSignal ™ West Femto HRP Substrate solutions (Thermo Scientific, Rockford, IL, USA) and analysed using the Omega Lum™ G Imaging System (San Francisco, CA, USA). Quantification of chemiluminescent signals was carried out using ImageJ (Image Processing and Analysis in Java 1.8.0_112).

PI3K enzyme = assay: PI3K ELISA on PI3K immunoprecipitated from treated cells; assay type: cell-based, mouse; conditions: 10 µM, 15 min; for Amount of PIP3 produced by PI3K enzyme: control 0.61 pmol
Protocol: PI3K enzyme was immunoprecipitated and processed in a PI3K ELISA (Fig. 7B). […] The enzyme activity is expressed as the amount of product (PIP3) generated in each sample by the PI3K enzyme per minute of reaction.
C2C12 cells were seeded in 35-mm dishes at 7 × 10^4 cells/mL and incubated at 37 °C in 5% CO2 to reach 80% confluency. […] Cells (~ 10^6) per treatment were collected to prepare whole cell lysates followed by exposure to three freeze/thaw cycles in liquid nitrogen. The samples were centrifuged and PI3K enzyme was immunoprecipitated with a mouse monoclonal anti-PI3K p55 γ antibody ((E-9), Santa Cruz Biotechnology, Dallas, TX, USA) for 1 h at 4 °C with gentle rocking and the immune complexes were collected overnight on a rocking platform at 4 °C with Dynabeads™ Protein A (Life Technologies, Carlsbad, CA, USA). The next day, the immunoprecipitated PI3K enzyme was collected by centrifugation processed for a PI3K ELISA (Echelon Biosciences, Salt Lake, City, UT, USA) according to the manufacturer’s instructions. Standard solutions of PIP3 (0, 0.22, 0.67, 2, 6, 18, and 54 pmol) were added to kinase reactions using recombinant PI3K enzyme (Echelon Biosciences, Salt Lake, City, UT, USA) and used to generate a standard curve for production of PIP3. The optical density of the PIP3 standards and the reactions containing immunoprecipitated PI3K from treated samples was measured at 450 nm.

[2] = system: p-Smad nuclear translocation; assay: Immunofluorescent labeling of p-Smad nuclear translocation; assay type: cell-based, mouse; conditions: 1 µM, 30 min
Protocol: Serum-starved C2C12 cells grown on poly-D-lysine (PDL)-coated coverslips were stimulated with BMP2 (50 ng/mL), SY-LB-35 (1 µM) or SY-LB-57 (1 µM) for 30 min.
In a 24-well plate, 12 mm glass coverslips were coated for 1 h at RT with 500 µL PDL (0.1 mg/mL/ 0.1 M Boric acid), washed 4 times with cell culture-grade distilled water and sterilized under UV light for 30 min. C2C12 cells (500 µL) were seeded onto the PDL-coated coverslips at a density of 1 × 10^5 cells/mL, grown to 80% confluency and starved in SS medium for 2 h. Next, the cells were treated with 50 ng/mL BMP2 or 1 µM SY-LB-35 or SY-LB-57 for 15 min (for p-Akt labelling) or 30 min (for p-Smad labelling). Cells were then fixed using ice-cold 4% PFA/PBS for 10 min at RT. Next, the coverslips were washed with ice-cold 1X PBS, transferred to a humidified chamber and incubated (100 µL/coverslip) in Permeabilization solution (0.1% Triton X-100/PBS) for 15 min, then Blocking Buffer (10% heat inactivated goat serum/ 0.3% Triton X-100/PBS) for 30 min. Anti-p-Smad antibodies in Antibody Dilution Buffer (1% BSA/0.1% Tween 20/PBS) were added for 1 h and the coverslips were washed 4 times with 1X PBS. The Cy3-conjugated goat anti-rabbit IgG secondary antibodies (Jackson Immuno Research Labs, West Grove, PA, USA) in Antibody Dilution Buffer were added for 1 h followed by 4 washes with 1X PBS and once with dH2O. […]

[3] = system: p-PI3K (PI3K phosphorylation); assay: Western blot of p-PI3K normalized to β-actin; assay type: cell-based, mouse; conditions: 15 min; for activity at 0.01 µM / activity at 0.1 µM / activity at 1 µM / activity at 10 µM: Mus musculus, 0.25 h, read-out: p-PI3K level, percent of control; for Increase in level of PI3K phosphorylation: all concentrations tested 0.01–10 µM
Protocol: To directly assess the activation of the PI3K enzyme, Western blot analysis was carried out on C2C12 cell whole cell lysates after a 15-min stimulation with 0.01–10 µM SY-LB-35 or SY-LB-57.
as §1, §2

**Q.** Which activity at 0.01 µM [1] does the source give for `Oc1ccc2[nH]c(-c3nc4ccccc4[nH]3)cc2c1` [SY-LB-35] here?
**A.** 150%

**Q.** What about the activity at 0.1 µM [1] of the same compound?
**A.** 170%

**Q.** What about the activity at 1 µM [1] of the same compound?
**A.** 282%

**Q.** What about the activity at 10 µM [1] of the same compound?
**A.** 188%

**Q.** And the “PIP3 produced, higher compared to control untreated cells” value (PI3K enzyme)?
**A.** 26%

**Q.** What about the “Amount of PIP3 produced by PI3K enzyme” value (PI3K enzyme) of the same compound?
**A.** 0.77 pmol

**Q.** And the p-Smad nuclear translocation [2]?
**A.** induced the translocation of p-Smad into the nucleus

**Q.** What about the activity at 0.01 µM [3] of the same compound?
**A.** 431%

**Q.** What about the activity at 0.1 µM [3] of the same compound?
**A.** 434%

**Q.** And the activity at 1 µM [3]?
**A.** 492%

**Q.** What about the activity at 10 µM [3] of the same compound?
**A.** 484%

**Q.** What about the “Increase in level of PI3K phosphorylation” value [3] of the same compound?
**A.** > 300 % increase

**Q.** Which results are given for `COc1ccc2[nH]c(-c3nc4ccccc4[nH]3)cc2c1` [SY-LB-57]?
**A.** activity at 0.01 µM [1]: 234%; activity at 0.1 µM [1]: 316%; activity at 1 µM [1]: 276%; activity at 10 µM [1]: 357%; PIP3 produced, higher compared to control untreated cells (PI3K enzyme): 26%; Amount of PIP3 produced by PI3K enzyme (PI3K enzyme): 0.77 pmol; p-Smad nuclear translocation [2]: induced the translocation of p-Smad into the nucleus; activity at 0.01 µM [3]: 443%; activity at 0.1 µM [3]: 404%; activity at 1 µM [3]: 471%; activity at 10 µM [3]: 451%; Increase in level of PI3K phosphorylation [3]: > 300 % increase

From article PMC9287337 (Scientific Reports, 2022)
